Data from PubChem BioAssay AID1963844 (Molecular Pharmacology Branch, DTP, NCI, 2024).
pIC50: −log10 of the molar value.

Tested on: 422866-222-R5-J1-PDC complex spheroid viability
Test: Anticancer human tumor 422866-222-R5-J1-PDC patient-derived pancreatic adenocarcinoma cell line growth inhibition [POLQ]
Conditions: for pIC50: curve of first compound; for viability, T/C: stronger effect = lower value
Experimental: Multicellular complex tumor spheroid response to Polymerase (POL) inhibitors (novobiocin, ART-558, RP6685) in combination with a variety of drugs and investigational agents in selected tumor cell lines
The POL inhibitors (novobiocin, ART-558, and RP6685) were evaluated both individually and in combination with standard of care and investigational anticancer small molecules within a complex spheroid model of solid tumors. . Complex spheroids include a stromal component modeled by human endothelial cells (HUVEC) and fibroblasts modeled by human mesenchymal stem cells (MSCs). The concentration ranges selected for each drug and investigational agent were based upon clinically achievable concentrations if the clinical Cmax of the agent was known.
Compounds. The drugs and investigational agents: novobiocin (NSC847541), ART-558 (NSC835418), RP-6685 (NSC848927), peposertib (NSC802822), ceralasertib (NSC780249), elimusertib (NSC800525), camonsertib (NSC841442), AZD-1390 (NSC803789), olaparib (NSC753686), talazoparib (NSC767125), rucaparib (NSC756644), sotorasib (NSC818433), MRTX-1133 (NSC836407), SN-38 (NSC673596), topotecan (NSC609699), epotoside (NSC141540), doxorubicin (NSC123127), gemcitabine (NSC613327), 5-fluorouracil (NSC19893), paclitaxel (NSC125973), vemurafenib (NSC761431), MSA-2 (NSC828583), SN-011 (NSC837082), adavosertib (NSC754352), prexasertib (NSC758257), carboplatin (NSC241240) and oxaliplatin (NSC266046), were obtained from the National Cancer Institute (NCI) Developmental Therapeutics Program Chemical Repository (21). The FDA-approved anticancer drug set is available from the Developmental Therapeutics Program at https://dtp.cancer.gov/organization/dscb/obtaining/. […] The stock solutions were prepared in dimethyl sulfoxide (DMSO, Sigma-Aldrich, St. Louis, MO, cat. D2650), except for the platinum compounds which were prepared in saline (Quality Biological, Gaithersburg, MD, cat. 114-055-101), at 800-fold the tested concentration and stored at -70 degrees C prior to their use. All drugs and investigational agents were tested over a range starting from a high concentration at or near the clinical Cmax and decreasing in half-log increments. If the clinical Cmax for an agent had not been determined, the highest concentration tested was 10 microM, except for SN-38, which was tested at a high concentration of 1 microM.
Cell Culture. All cells were maintained in an incubator at 37 degrees C and 5% CO2 with 95% humidity. The PDC lines were cultured according to standard operating procedures established by the NCI PDMR (https://pdmr.cancer.gov). Table 3 of the manuscript, lists the cell lines along with the number of the three cell types plated to form the mct-spheroids and media for tumor cell growth. After thawing, all PDC lines, except 997537-175-T-J1-PDC and 415267-285-R-J2-PDC, were cultured in Matrigel-coated flasks prepared with a working solution of 1X Ham's F-12 nutrient mix, without supplementation (Thermo Fisher Scientific, cat. 11765054), 100 U/mL penicillin-streptomycin (Thermo Fisher Scientific, cat. 15140122), and 2.5% Matrigel (Corning Inc., Corning, NY, cat. 354248) for the first three passages. The two PDC lines 997537-175-T-J1-PDC and 415267-285-R-J2-PDC were cultured on uncoated flasks. The 857933-349-R-J2-PDC line was cultured in 6C/Colon 1B media containing advanced DMEM/F-12 (Thermo Fisher Scientific, cat. 12634028), 10 mM HEPES (Thermo Fisher Scientific, cat. 15630080), 1X GlutaMAX supplement (Thermo Fisher Scientific, cat. 35050061), 0.1 mg/mL primocin (InvivoGen, San Diego, CA, cat. ant-pm-2), 10% defined fetal bovine serum, heat inactivated (HyClone Laboratories Inc., Logan, UT, cat. SH30070.03HI), 50% L-WRN conditioned media (ATCC, cat. CRL-3276), 1.25 mM N-Acetyl-L-cysteine (Sigma-Aldrich, cat. A9165), 10 mM nicotinamide (Sigma-Aldrich, cat. N0636), 1X B-27 supplement (Thermo Fisher Scientific, cat. 17504044), 1X N-2 supplement (Thermo Fisher Scientific, cat. […]

[1] = second compound 0.0316 µM, first compound 0.0316 µM
[2] = second compound 0.0316 µM, first compound 0.1 µM
[3] = second compound 0.0316 µM, first compound 0.316 µM
[4] = second compound 0.0316 µM, first compound 1 µM
[5] = second compound 0.1 µM, first compound 0.0316 µM
[6] = second compound 0.1 µM, first compound 0.1 µM
[7] = second compound 0.1 µM, first compound 0.316 µM
[8] = second compound 0.1 µM, first compound 1 µM
[9] = second compound 0.316 µM, first compound 0.0316 µM
[10] = second compound 0.316 µM, first compound 0.1 µM
[11] = second compound 0.316 µM, first compound 0.316 µM
[12] = second compound 0.316 µM, first compound 1 µM
[13] = second compound 1 µM, first compound 0.0316 µM
[14] = second compound 1 µM, first compound 0.1 µM
[15] = second compound 1 µM, first compound 0.316 µM
[16] = second compound 1 µM, first compound 1 µM
[17] = second compound 3.16 µM, first compound 0.0316 µM
[18] = second compound 3.16 µM, first compound 0.1 µM
[19] = second compound 3.16 µM, first compound 0.316 µM
[20] = second compound 3.16 µM, first compound 1 µM
[21] = second compound 10 µM, first compound 0.0316 µM
[22] = second compound 10 µM, first compound 0.1 µM
[23] = second compound 10 µM, first compound 0.316 µM
[24] = second compound 10 µM, first compound 1 µM
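Note: spheroids exposed to compounds for one week before readout.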
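Throughout, for viability, T/C: percent of DMSO vehicle wells luminescence so 100% = untreated viability.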

C=CC(=O)N1CCN(c2nc(=O)n(-c3c(C)ccnc3C(C)C)c3nc(-c4c(O)cccc4F)c(F)cc23)C(C)C1 (centres undefined) + COC1C(OC(N)=O)C(O)C(Oc2ccc3c(O)c(NC(=O)c4ccc(O)c(CC=C(C)C)c4)c(=O)oc3c2C)OC1(C)C
pIC50 (second compound 0.0316 µM): > 7.50 | pIC50 (second compound 0.1 µM): > 7.50 | pIC50 (second compound 0.316 µM): > 7.50 | pIC50 (second compound 1 µM): > 7.50 | pIC50 (second compound 3.16 µM): > 7.50 | pIC50 (second compound 10 µM): > 7.50 | viability, T/C [1]: 33.4% | viability, T/C [2]: 26.7% | viability, T/C [3]: 29% | viability, T/C [4]: 22.4% | viability, T/C (second compound 0.0316 µM, first compound 3.16 µM): 28% | viability, T/C (second compound 0.0316 µM, first compound 10 µM): 33% | viability, T/C [5]: 32.8% | viability, T/C [6]: 28.9% | viability, T/C [7]: 23.3% | viability, T/C [8]: 23.7% | viability, T/C (second compound 0.1 µM, first compound 3.16 µM): 23.2% | viability, T/C (second compound 0.1 µM, first compound 10 µM): 27.1% | viability, T/C [9]: 29.9% | viability, T/C [10]: 25.1% | viability, T/C [11]: 24.3% | viability, T/C [12]: 21% | viability, T/C (second compound 0.316 µM, first compound 3.16 µM): 24.4% | viability, T/C (second compound 0.316 µM, first compound 10 µM): 28.7% | viability, T/C [13]: 34.4% | viability, T/C [14]: 30.6% | viability, T/C [15]: 28.4% | viability, T/C [16]: 28.4% | viability, T/C (second compound 1 µM, first compound 3.16 µM): 20.8% | viability, T/C (second compound 1 µM, first compound 10 µM): 25.6% | viability, T/C [17]: 31.3% | viability, T/C [18]: 27.1% | viability, T/C [19]: 28.3% | viability, T/C [20]: 23.7% | viability, T/C (second compound 3.16 µM, first compound 3.16 µM): 28.2% | viability, T/C (second compound 3.16 µM, first compound 10 µM): 29.3% | viability, T/C [21]: 32.2% | viability, T/C [22]: 26.8% | viability, T/C [23]: 30% | viability, T/C [24]: 22.9% | viability, T/C (second compound 10 µM, first compound 3.16 µM): 25.4% | viability, T/C (second compound 10 µM, first compound 10 µM): 28.6%

CCc1c2c(nc3ccc(O)cc13)-c1cc3c(c(=O)n1C2)COC(=O)[C@]3(O)CC + Cc1cccc(N(C)C(=O)C2C(O)CCN2c2nc(C)cc(C(F)(F)F)c2C#N)c1
pIC50 (second compound 0.0316 µM): > 8.50 | pIC50 (second compound 0.1 µM): > 8.50 | pIC50 (second compound 0.316 µM): > 8.50 | pIC50 (second compound 1 µM): > 8.50 | pIC50 (second compound 3.16 µM): > 8.50 | pIC50 (second compound 10 µM): > 8.50 | viability, T/C (second compound 0.0316 µM, first compound 0.00316 µM): 44.4% | viability, T/C (second compound 0.0316 µM, first compound 0.01 µM): 37.4% | viability, T/C [1]: 38.7% | viability, T/C [2]: 37.7% | viability, T/C [3]: 34.4% | viability, T/C [4]: 21.4% | viability, T/C (second compound 0.1 µM, first compound 0.00316 µM): 49.1% | viability, T/C (second compound 0.1 µM, first compound 0.01 µM): 34.3% | viability, T/C [5]: 38.9% | viability, T/C [6]: 34.8% | viability, T/C [7]: 34.2% | viability, T/C [8]: 28.2% | viability, T/C (second compound 0.316 µM, first compound 0.00316 µM): 46.2% | viability, T/C (second compound 0.316 µM, first compound 0.01 µM): 40.4% | viability, T/C [9]: 37.3% | viability, T/C [10]: 38.1% | viability, T/C [11]: 34.6% | viability, T/C [12]: 25% | viability, T/C (second compound 1 µM, first compound 0.00316 µM): 40.9% | viability, T/C (second compound 1 µM, first compound 0.01 µM): 45.4% | viability, T/C [13]: 34.4% | viability, T/C [14]: 35.2% | viability, T/C [15]: 40.6% | viability, T/C [16]: 18.2% | viability, T/C (second compound 3.16 µM, first compound 0.00316 µM): 49.7% | viability, T/C (second compound 3.16 µM, first compound 0.01 µM): 38.3% | viability, T/C [17]: 35.1% | viability, T/C [18]: 34.6% | viability, T/C [19]: 39.3% | viability, T/C [20]: 26.4% | viability, T/C (second compound 10 µM, first compound 0.00316 µM): 42.1% | viability, T/C (second compound 10 µM, first compound 0.01 µM): 40.1% | viability, T/C [21]: 42.2% | viability, T/C [22]: 38% | viability, T/C [23]: 44.2% | viability, T/C [24]: 24.6%
